Test results from patent publication US11584765B2 (priority 2017, dated 2023).
Structures can show the parent of a compound that is named as a salt.

Test system: C57BL/6 mice
Experiment: animal or person
Format: in vivo
Details: Mus musculus, sc, 0.5 h, s.c. administration, 30 min, 55° C. water, read-out: ED50 (mg/kg) at 30 min on C57BL/6 mice in Warm-water Tail-flick Test

Structure (SMILES)	ED50 [mg/kg]
CCOCC1(CCc2ccccc2)CCN(Cc2csc(C)n2)C1 (stereo not shown) [Compound 340, 4-((3-(ethoxymethyl)-3-phenethylpyrrolidin-1-yl)methyl)-2-methylthiazole]	> 10
CCOCC1(CCc2ccccc2)CCN(Cc2cccc(NC(C)=O)c2)CC1 [Compound 176, N-(3-((4-(ethoxymethyl)-4-phenethylpiperidin-1-yl)methyl)phenyl)acetamide]	> 10
CCOC[C@@]1(CCc2ccc(F)cc2)CCN(Cc2cccnc2)C1 [Compound 322, (S)-3-((3-(ethoxymethyl)-3-(4-fluorophenethyl)pyrrolidin-1-yl)methyl)pyridine]	< 10
CCOCC1(CCc2ccc(O)cc2)CCN(Cc2ccc(NC(C)=O)cc2)CC1.Cl [Compound 105, N-(4-((4-(ethoxymethyl)-4-(4-hydroxy-phenethyl)piperidin-1-yl)methyl)phenyl)acetamide HCl]	> 10
COC(=O)C1(CCc2ccccc2)CN(Cc2ccc(NC(C)=O)cc2)C1.Cl [Compound 27, methyl 1-(4-acetamidobenzyl)-3-phenethylazetidine-3-carboxylate HCl]	> 10
CC(=O)Nc1ccc(CN2CCC(CCc3ccccc3)(C3CCCO3)C2)cc1 (stereo not shown) [Compound 180, N-(4-((3-phenethyl-3-(tetrahydrofuran-2-yl)pyrrolidin-1-yl)methyl)phenyl)acetamide]	> 10
CCOCC1(CCc2ccccc2)CCN(Cc2ccc3[nH]ccc3c2)CC1 [Compound 110, 5-((4-(ethoxymethyl)-4-phenethylpiperidin-1-yl)methyl)-1H-indole]	> 10
CCOC[C@@]1(CCc2sccc2C)CCN(Cc2cccnc2)C1 [Compound 462, (S)-3-((3-(ethoxymethyl)-3-(2-(3-methylthiophen-2-yl)ethyl)pyrrolidin-1-yl)methyl)pyridine]	< 10
c1ccc(C2(CCc3cccs3)CCN(Cc3cccnc3)CC2)nc1 [Compound 410, 2-(1-(pyridin-3-ylmethyl)-4-(2-(thiophen-2-yl)ethyl)piperidin-4-yl)pyridine]	< 10
CCOCC1(CCc2ccccc2)CCN(Cc2ccc(-c3cncs3)cc2)CC1 [Compound 139, 5-(4-((4-(ethoxymethyl)-4-phenethylpiperidin-1-yl)methyl)phenyl)thiazole]	> 10
CC(=O)N(C)c1ccc(CN2CCC(CCc3ccccc3)(c3ncc[nH]3)CC2)cc1 [Compound 43, N-(4-((4-(1H-imidazol-2-yl)-4-phenethylpiperidin-1-yl)methyl)phenyl)-N-methylacetamide]	> 10
c1ccc(CCC2(C3CCCO3)CCN(CC3CCOC3)C2)cc1 (stereo not shown) [Compound 230, 3-phenethyl-3-(tetrahydrofuran-2-yl)-1-((tetrahydrofuran-3-yl)methyl)pyrrolidine]	> 10
CCOCC1(CCc2ccsc2)CCN(Cc2cccnc2)C1 (stereo not shown) [Compound 252]	< 10
CCOC[C@@]1(CCc2ccc(F)s2)CCN(C2(c3ccc(C)nc3)CC2)C1 [Compound 435]	< 10
CCOC[C@@]1(CCc2ccsc2)CCN(C(C)c2cccnc2)C1 (stereo partly drawn) [Compound 387, 3-(1-((S)-3-(ethoxymethyl)-3-(2-(thiophen-3-yl)ethyl)pyrrolidin-1-yl)ethyl)pyridine]	< 10
Cc1ccncc1CN1CCC(CCc2ccccc2)(C2CCCO2)C1 (stereo not shown) [Compound 262, 4-methyl-3-((3-phenethyl-3-(tetrahydrofuran-2-yl)pyrrolidin-1-yl)methyl)pyridine]	> 10
CC(C)(c1cccnc1)N1CC[C@@](CO)(CCc2cccs2)C1 [Compound 415]	< 10
CCOC[C@@]1(CCc2cccnn2)CCN(Cc2cccnc2)C1 [Compound 406, (S)-3-(2-(3-(ethoxymethyl)-1-(pyridin-3-ylmethyl)pyrrolidin-3-yl)ethyl)pyridazine]	> 10
COC[C@@]1(CCc2csc(C)c2)CCN(C(C)(C)c2ccc(C)nc2)C1 [Compound 383, (S)-5-(2-(3-(methoxymethyl)-3-(2-(5-methylthiophen-3-yl)ethyl)pyrrolidin-1-yl)propan-2-yl)-2-methylpyridine]	< 10
CC(=O)Nc1ccc(CN2CCC(CCc3ccccc3)(c3ncon3)CC2)cc1 [Compound 10]	> 10
CCOCC1(CCc2ccccc2)CCN(C(C)c2cnn(C)c2)C1 (stereo not drawn) [Compound 332, 4-(1-(3-(ethoxymethyl)-3-phenethylpyrrolidin-1-yl)ethyl)-l-methyl-1H-pyrazole]	< 10
CCOC[C@@]1(CCc2ccc(F)s2)CCN(Cc2cccnc2)C1 [Compound 345, (S)-3-((3-(ethoxymethyl)-3-(2-(5-fluorothiophen-2-yl)ethyl)pyrrolidin-1-yl)methyl)pyridine]	< 10
CCOC[C@@]1(CCc2nc3ncncc3n2Cc2ccc(OC)cc2)CCN(C(C)(C)c2ccc(C)nc2)C1 [Compound 461, (S)-8-(2-(3-(ethoxymethyl)-1-(2-(6-methylpyridin-3-yl)propan-2-yl)pyrrolidin-3-yl)ethyl)-7-(4-methoxybenzyl)-7H-purine citrate]	< 10

Structure (SMILES)	ED50 [mg/kg]
CCOC[C@@]1(CCc2cccc(F)c2)CCN(Cc2cccnc2)C1 [Compound 441, (S)-3-((3-(ethoxymethyl)-3-(3-fluoro-phenethyl)pyrrolidin-1-yl)methyl)pyridine]	< 10
CCOC(=O)Nc1ccc(CN2CCC(CCc3ccccc3)(c3ccccn3)CC2)cc1 [Compound 22, ethyl 4-((4-phenethyl-4-(pyridin-2-yl)piperidin-1-yl)methyl)phenylcarbamate]	> 10
Cl.Cn1cc(CN2CCC(CCc3cccs3)(c3ccccn3)CC2)cn1 [Compound 448]	< 10
CCOCC1(CCc2csc(C)c2)CCN(Cc2cccnc2)C1 (stereo not shown) [Compound 287, 3-((3-(ethoxymethyl)-3-(2-(5-methylthiophen-yl)ethyl)pyrrolidin-1-yl)methyl)pyridine]	< 10
CC(=O)Nc1ccc(CN2CCC(CCc3ccccc3)(COCc3ccccc3)C2)cc1 (stereo not shown) [Compound 239, N-(4-((3-(benzyloxymethyl)-3-phenethylpyrrolidin-1-yl)methyl)phenyl)acetamide]	> 10
CCOCC1(CCc2ccsc2)CCN(Cc2cnn(C)c2)CC1 [Compound 232, 4-(ethoxymethyl)-1-((1-methyl-1H-pyrazol-4-yl)methyl)-4-(2-(thiophen-3-yl)ethyl)piperidine]	< 10
CC(=O)Nc1ccc(CN2CCC(CCc3ccccc3)(C3C=CCO3)C2)cc1 (stereo not shown) [Compound 179, N-(4-((3-(2,5-dihydrofuran-2-yl)-3-phenethylpyrrolidin-1-yl)methyl)phenyl)acetamide]	< 10
CC(=O)Nc1ccc(CN2CC[C@](CCc3ccccc3)([C@H]3C=CCO3)C2)cc1 (single isomer, unassigned) [Compound 261]	> 10
CC(=O)Nc1ccc(CN2CCC(CCc3ccccc3)(c3ccsc3)CC2)cc1 [Compound 3]	> 10
CCOCC1(CCc2ccc(C)cc2)CCN(Cc2cccnc2)C1 (stereo not shown) [Compound 291, 3-((3-(ethoxymethyl)-3-(4-methyl-phenethyl)pyrrolidin-1-yl)methyl)pyridine]	> 10
CCOC[C@@]1(CCc2cscc2C)CCN(Cc2cccnc2)C1 [Compound 385, (S)-3-((3-(ethoxymethyl)-3-(2-(4-methylthiophen-3-yl)ethyl)pyrrolidin-1-yl)methyl)pyridine]	< 10
CCOC(C)C1(CCc2ccccc2)CCN(Cc2ccc(NC(C)=O)cc2)CC1.Cl (stereo not shown) [Compound 159, N-(4-((4-(1-ethoxyethyl)-4-phenethylpiperidin-1-yl)methyl)phenyl)acetamide HCl]	> 10
c1ccc(CCC2(C3CCCO3)CCN(Cc3cccc(-c4ccco4)c3)C2)cc1 (stereo not shown) [Compound 219]	> 10
c1ccc(CCC2(C3CCCO3)CCN(Cc3cccnc3)C2)cc1 (stereo not shown) [Compound 226, 3-((3-phenethyl-3-(tetrahydrofuran-2-yl)pyrrolidin-1-yl)methyl)pyridine]	< 10
Cc1ncc(CN2CCC(CCc3ccccc3)(C3CCCO3)C2)s1 (stereo not shown) [Compound 231, 2-methyl-5-((3-phenethyl-3-(tetrahydrofuran-2-yl)pyrrolidin-1-yl)methyl)thiazole]	< 10
CCOCC1(CCc2c(C)csc2C)CCN(Cc2cnn(C)c2)CC1 [Compound 282, 4-(2-(2,4-dimethylthiophen-3-yl)ethyl)-4-(ethoxymethyl)-1-((1-methyl-1H-pyrazol-4-yl)methyl)piperidine]	> 10
COc1ccsc1CN1CCC(CCc2ccccc2)(C2CCCO2)C1 (stereo not shown) [Compound 223, 1-((3-methoxythiophen-2-yl)methyl)-3-phenethyl-3-(tetrahydrofuran-2-yl)pyrrolidine]	> 10
CC(=O)Nc1ccc(CN2CC[C@@](CCc3ccccc3)([C@H]3C=CCO3)C2)cc1 (single isomer, unassigned) [Compound 259]	< 10
c1ccc(CCC2(C3CCCO3)CCN(Cc3cccn3-c3cccnc3)C2)cc1 (stereo not shown) [Compound 193, 3-(2-((3-phenethyl-3-(tetrahydrofuran-2-yl)pyrrolidin-1-yl)methyl)-1H-pyrrol-1-yl)pyridine]	> 10
CC(=O)Nc1ccc(CN2CCC(CCc3ccccc3)(C3CCCO3)CC2)cc1 (stereo not shown) [Compound 69, N-(4-((4-phenethyl-4-(tetrahydrofuran-2-yl)piperidin-1-yl)methyl)phenyl)acetamide]	< 10
CCOCC1(CCc2ccccc2)CCN(C(CO)c2ccc(C)nc2)C1 (stereo not shown) [Compound 342, 2-(3-(ethoxymethyl)-phenethylpyrrolidin-1-yl)-2-(6-methylpyridin-3-yl)ethanol]	< 10
CCOC[C@@]1(CCc2ccccc2)CCN(C(C)(C)c2ccc(C)nc2)C1 [Compound 366, (S)-5-(2-(3-(ethoxymethyl)-3-phenethylpyrrolidin-1-yl)propan-2-yl)-2-methylpyridine]	< 10
c1ccc(CCC2(c3ccccn3)CCN(Cc3ccccc3)CC2)cc1 [Compound 26, 2-(1-benzyl-4-phenethylpiperidin-4-yl)pyridine]	> 10
